From US8952157B2, “Apoptosis-inducing agents for the treatment of cancer and immune and autoimmune diseases” (AbbVie Inc., priority 2008, dated 2015)
pKi: −log10 of the molar value.

Molecular target: GST-Bcl-2 (Homo sapiens (Human), UniProt P10415)
Assay: Time Resolved-Fluorescence Resonance Energy Transfer (TR-FRET) Bcl-2 binding assay
Settings: GST-Bcl-2 1 nM, F-Bak peptide probe 100 nM, Tb-anti-GST antibody 1 nM; Ki by Wang's equation
Summary of the method: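 Ki values derived from TR-FRET displacement of F-Bak peptide from GST-Bcl-2, detected with Tb-labelled anti-GST antibody (ex 340, em 520/495 nm). Compound dilution series started at 50 μM (2× starting concentration); room-temperature incubation 3 hours.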

Sequence of GST-Bcl-2 (P10415 whole entry): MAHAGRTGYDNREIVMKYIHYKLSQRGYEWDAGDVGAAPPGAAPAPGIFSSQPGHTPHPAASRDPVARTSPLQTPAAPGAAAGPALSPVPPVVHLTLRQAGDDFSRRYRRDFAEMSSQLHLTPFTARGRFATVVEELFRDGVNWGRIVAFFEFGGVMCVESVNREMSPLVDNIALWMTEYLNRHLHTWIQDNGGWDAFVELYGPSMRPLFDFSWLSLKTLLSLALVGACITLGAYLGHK

Compared with CC1(C)CCC(CN2CCN(c3ccc(C(=O)NS(=O)(=O)c4ccc(N[C@H]5CCCN(C6CCOCC6)C5)c([N+](=O)[O-])c4)c(Oc4cc5cc[nH]c5cc4F)c3)CC2)=C(c2ccc(Cl)cc2)C1 [Example 329, 4-(4-{[2-(4-chlorophenyl)-4,4-dimethylcyclohex-1-en-1-yl]methyl}piperazin-1-yl)-2-[(6-fluoro-1H-indol-5-yl)oxy]-N-[(3-nitro-4-{[(3S)-1-tetrahydro-2H-pyran-4-ylpiperidin-3-yl]amino}phenyl)sulfonyl]benzamide], CC1(C)CCC(CN2CCN(c3ccc(C(=O)NS(=O)(=O)c4ccc(NC5CCOCC5)c([N+](=O)[O-])c4)c(Oc4cc5cc[nH]c5cc4F)c3)CC2)=C(c2ccc(Cl)cc2)C1 [Example 251, 4-(4-{[2-(4-chlorophenyl)-4,4-dimethylcyclohex-1-en-1-yl]methyl}piperazin-1-yl)-2-[(6-fluoro-1H-indol-5-yl)oxy]-N-{[3-nitro-4-(tetrahydro-2H-pyran-4-ylamino)phenyl]sulfonyl}benzamide] is 0.61 log units lower in pKi: 9.97 for the first, 9.36 for the second. The first binds more tightly here.

Compared with CC1(C)CCC(CN2CCN(c3ccc(C(=O)NS(=O)(=O)c4ccc(NCC5CCOCC5)c([N+](=O)[O-])c4)c(Oc4cc5cc[nH]c5c(F)c4F)c3)CC2)=C(c2ccc(Cl)cc2)C1 [Example 243, 4-(4-{[2-(4-chlorophenyl)-4,4-dimethylcyclohex-1-en-1-yl]methyl}piperazin-1-yl)-2-[(6,7-difluoro-1H-indol-5-yl)oxy]-N-({3-nitro-4-[(tetrahydro-2H-pyran-4-ylmethyl)amino]phenyl}sulfonyl)benzamide], CC1(C)CC(c2ccc(Cl)cc2)=C(CN2CCN(c3ccc(C(=O)NS(=O)(=O)c4ccc(NCC5CCOCC5)c([N+](=O)[O-])c4)c(Oc4cc5cc[nH]c5cc4F)c3)CC2)CO1 [Example 277, 4-(4-{[4-(4-chlorophenyl)-6,6-dimethyl-5,6-dihydro-2H-pyran-3-yl]methyl}piperazin-1-yl)-2-[(6-fluoro-1H-indol-5-yl)oxy]-N-({3-nitro-4-[(tetrahydro-2H-pyran-4-ylmethyl)amino]phenyl}sulfonyl)benzamide] is 0.61 log units higher in pKi: 10.16 for the first, 10.77 for the second. The second binds more tightly here.

Going from CN1CCN(Nc2ccc(S(=O)(=O)NC(=O)c3ccc(N4CCN(CC5=C(c6ccc(Cl)cc6)CC(C)(C)CC5)CC4)cc3Oc3ccccc3Cl)cc2[N+](=O)[O-])CC1 [Example 184, 2-(2-chlorophenoxy)-4-(4-{[2-(4-chlorophenyl)-4,4-dimethylcyclohex-1-en-1-yl]methyl}piperazin-1-yl)-N-({4-[(4-methylpiperazin-1-yl)amino]-3-nitrophenyl}sulfonyl)benzamide] to CN1CCC(CNc2ccc(S(=O)(=O)NC(=O)c3ccc(N4CCN(CC5=C(c6ccc(Cl)cc6)CC(C)(C)CC5)CC4)cc3Oc3cccc(Cl)c3)cc2[N+](=O)[O-])CC1 [Example 155, 2-(3-chlorophenoxy)-4-(4-{[2-(4-chlorophenyl)-4,4-dimethylcyclohex-1-en-1-yl]methyl}piperazin-1-yl)-N-[(4-{[(1-methylpiperidin-4-yl)methyl]amino}-3-nitrophenyl)sulfonyl]benzamide], the pKi rises from 9.81 to 10.21 (0.40 log units). The second binds more tightly here.

Compared with CC1(C)CCC(CN2CCN(c3ccc(C(=O)NS(=O)(=O)c4ccc(NC5CCN(CC6CC6)CC5)c([N+](=O)[O-])c4)c(Oc4cccc(Cl)c4)c3)CC2)=C(c2ccc(Cl)cc2)C1 [Example 187, 2-(3-chlorophenoxy)-4-(4-{[2-(4-chlorophenyl)-4,4-dimethylcyclohex-1-en-1-yl]methyl}piperazin-1-yl)-N-[(4-{[1-(cyclopropylmethyl)piperidin-4-yl]amino}-3-nitrophenyl)sulfonyl]benzamide], CN1CCC(Nc2ccc(S(=O)(=O)NC(=O)c3ccc(N4CCN(CC5=C(c6ccc(Cl)cc6)CC(C)(C)CC5)CC4)cc3OCc3csc(N)n3)cc2[N+](=O)[O-])CC1 [Example 223, 2-[(2-amino-1,3-thiazol-4-yl)methoxy]-4-(4-{[2-(4-chlorophenyl)-4,4-dimethylcyclohex-1-en-1-yl]methyl}piperazin-1-yl)-N-({4-[(1-methylpiperidin-4-yl)amino]-3-nitrophenyl}sulfonyl)benzamide] is 2.31 log units lower in pKi: 10.27 for the first, 7.96 for the second. The first binds more tightly here.

Compared with CC1(C)CCC(CN2CCN(c3ccc(C(=O)NS(=O)(=O)c4ccc(NCC5CCOCC5)c([N+](=O)[O-])c4)c(Oc4ccc(OCc5ccccc5)nc4)c3)CC2)=C(c2ccc(Cl)cc2)C1 [Example 284, 2-{[6-(benzyloxy)pyridin-3-yl]oxy}-4-(4-{[2-(4-chlorophenyl)-4,4-dimethylcyclohex-1-en-1-yl]methyl}piperazin-1-yl)-N-({3-nitro-4-[(tetrahydro-2H-pyran-4-ylmethyl)amino]phenyl}sulfonyl)benzamide], O=C1CCc2c(cccc2Oc2cc(N3CCN(Cc4ccccc4-c4ccc(Cl)cc4)CC3)ccc2C(=O)NS(=O)(=O)c2ccc(NCC3CCOCC3)c([N+](=O)[O-])c2)N1 [Example 95, 4-(4-((4′-chloro-1,1′-biphenyl-2-yl)methyl)piperazin-1-yl)-N-((3-nitro-4-((tetrahydro-2H-pyran-4-ylmethyl)amino)phenyl)sulfonyl)-2-((2-oxo-1,2,3,4-tetrahydroquinolin-5-yl)oxy)benzamide] is 2.27 log units higher in pKi: 7.10 for the first, 9.37 for the second. The second binds more tightly here.

CC1(C)CCC(CN2CCN(c3ccc(C(=O)NS(=O)(=O)c4ccc(NCCCN5CCOCC5)c([N+](=O)[O-])c4)c(Oc4cccc(Cl)c4F)c3)CC2)=C(c2ccc(Cl)cc2)C1 [Example 148, 2-(3-chloro-2-fluorophenoxy)-4-(4-{[2-(4-chlorophenyl)-4,4-dimethylcyclohex-1-en-1-yl]methyl}piperazin-1-yl)-N-({4-[(3-morpholin-4-ylpropyl)amino]-3-nitrophenyl}sulfonyl)benzamide] and CN1CCC(Nc2ccc(S(=O)(=O)NC(=O)c3ccc(N4CCN(CC5=C(c6ccc(Cl)cc6)CCCCC5)CC4)cc3Oc3ccccc3Cl)cc2[N+](=O)[O-])CC1 [Example 56, 2-(2-chlorophenoxy)-4-(4-((2-(4-chlorophenyl)cyclohept-1-en-1-yl)methyl)piperazin-1-yl)-N-((4-((1-methylpiperidin-4-yl)amino)-3-nitrophenyl)sulfonyl)benzamide] are the same in pKi: 9.97 for the first, 9.97 for the second.

Compared with O=C(NS(=O)(=O)c1ccc(NCCCN2CCOCC2)c([N+](=O)[O-])c1)c1ccc(N2CCN(Cc3ccccc3-c3ccc(Cl)cc3)CC2)cc1Oc1ccc(OCc2ccccc2)cc1 [Example 96, 2-(4-(benzyloxy)phenoxy)-4-(4-((4′-chloro-1,1′-biphenyl-2-yl)methyl)piperazin-1-yl)-N-((4-((3-morpholin-4-ylpropyl)amino)-3-nitrophenyl)sulfonyl)benzamide], CC1(C)CCC(CN2CCN(c3ccc(C(=O)NS(=O)(=O)c4cnc(OCC5COCCO5)c(C#N)c4)c(Oc4cc5cc[nH]c5cc4F)c3)CC2)=C(c2ccc(Cl)cc2)C1 (centres unmarked) [Example 305, 4-(4-{[2-(4-chlorophenyl)-4,4-dimethylcyclohex-1-en-1-yl]methyl}piperazin-1-yl)-N-{[5-cyano-6-(1,4-dioxan-2-ylmethoxy)pyridin-3-yl]sulfonyl}-2-[(6-fluoro-1H-indol-5-yl)oxy]benzamide] is higher in pKi: under 5.92 for the first, 9.84 for the second. The second binds more tightly here.
